{"source": "ChEMBL document CHEMBL4342428", "about": "“d-Limonene Ameliorates Myocardial Infarction Injury by Reducing Reactive Oxygen Species and Cell Apoptosis in a Murine Model” (2019)", "key": {"Mus musculus [1]": {"test_system": "Mus musculus", "test": "Cardioprotective activity in Swiss mouse model of isoproterenol-induced myocardial Infarction assessed as abnormal ST-segment at 1200 mg/kg administered 30 mins post isoproterenol stimulation and measured for 5 mins by electrocardiographic analysis (reference value: 70%)", "assay_type": "functional"}, "Mus musculus [2]": {"test_system": "Mus musculus", "test": "Cardioprotective activity in Swiss mouse model of myocardial infarction assessed as reversal of isoproterenol-induced increase in QTc interval at 1200 mg/kg administered 30 mins post isoproterenol stimulation and measured for 5 mins by electrocardiographic analysis", "assay_type": "functional, organism-based"}, "Mus musculus [3]": {"test_system": "Mus musculus", "test": "Cardioprotective activity in Swiss mouse model of myocardial infarction assessed as reversal of isoproterenol-induced increase in heart rate at 1200 mg/kg administered 30 mins post isoproterenol stimulation and measured for 5 mins by electrocardiographic analysis", "assay_type": "functional, organism-based"}, "Mus musculus [4]": {"test_system": "Mus musculus", "test": "Cardioprotective activity in Swiss mouse model of isoproterenol-induced myocardial infarction assessed as reduction in myocardial infarct size at 1200 mg/kg administered 30 mins post isoproterenol stimulation by TTC staining based assay", "assay_type": "functional, organism-based"}, "Mus musculus [5]": {"test_system": "Mus musculus", "test": "Cardioprotective activity in Swiss mouse model of isoproterenol-induced myocardial infarction assessed as reduction in lactate dehydrogenase at 1200 mg/kg administered 30 mins post isoproterenol stimulation", "assay_type": "functional, organism-based"}, "Mus musculus [6]": {"test_system": "Mus musculus", "test": "Cardioprotective activity in Swiss mouse model of isoproterenol-induced myocardial infarction assessed as reduction in creatine kinase myocardial band at 1200 mg/kg administered 30 mins post isoproterenol stimulation", "assay_type": "functional, organism-based"}, "Mus musculus [7]": {"test_system": "Mus musculus", "test": "Cardioprotective activity against isoproterenol-induced oxidative stress in Swiss mouse model of myocardial infarction assessed as reduction in ROS generation at 1200 mg/kg administered 30 mins post isoproterenol stimulation by DHE staining based fluorescence assay", "assay_type": "functional, organism-based"}, "Mus musculus [8]": {"test_system": "Mus musculus", "test": "Cardioprotective activity against isoproterenol-induced apoptosis in Swiss mouse model of myocardial infarction assessed as increase in Bcl2 expression at 1200 mg/kg administered 30 mins post isoproterenol stimulation by Western blot analysis", "assay_type": "functional, organism-based"}, "Mus musculus [9]": {"test_system": "Mus musculus", "test": "Cardioprotective activity against isoproterenol-induced apoptosis in Swiss mouse model of myocardial infarction assessed as reduction in Bax/Bcl2 expression ratio in at 1200 mg/kg administered 30 mins post isoproterenol stimulation by Western blot analysis", "assay_type": "functional, organism-based"}, "Mus musculus [10]": {"test_system": "Mus musculus", "test": "Cardioprotective activity against isoproterenol-induced apoptosis in Swiss mouse model of myocardial infarction assessed as reduction in Bax expression at 1200 mg/kg administered 30 mins post isoproterenol stimulation by Western blot analysis", "assay_type": "functional, organism-based"}, "Mus musculus [11]": {"test_system": "Mus musculus", "test": "Cardioprotective activity in Swiss mouse model of isoproterenol-induced myocardial Infarction assessed as abnormal ST-segment at 10 umol, ip administered 30 mins post isoproterenol stimulation and measured for 5 mins by electrocardiographic analysis (reference value: 70%)", "assay_type": "functional"}, "Mus musculus [12]": {"test_system": "Mus musculus", "test": "Cardioprotective activity in Swiss mouse model of myocardial infarction assessed as reversal of isoproterenol-induced increase in QTc interval at 10 umol, ip administered 30 mins post isoproterenol stimulation and measured for 5 mins by electrocardiographic analysis", "assay_type": "functional, organism-based"}, "Mus musculus [13]": {"test_system": "Mus musculus", "test": "Cardioprotective activity in Swiss mouse model of myocardial infarction assessed as reversal of isoproterenol-induced increase in heart rate at 10 umol, ip administered 30 mins post isoproterenol stimulation and measured for 5 mins by electrocardiographic analysis", "assay_type": "functional, organism-based"}, "Mus musculus [14]": {"test_system": "Mus musculus", "test": "Cardioprotective activity in Swiss mouse model of isoproterenol-induced myocardial infarction assessed as reduction in myocardial infarct size at 10 umol, ip administered 30 mins post isoproterenol stimulation by TTC staining based assay", "assay_type": "functional, organism-based"}, "Mus musculus [15]": {"test_system": "Mus musculus", "test": "Cardioprotective activity in Swiss mouse model of isoproterenol-induced myocardial infarction assessed as reduction in inflammatory cell infiltration in myocardium at 10 umol, ip administered 30 mins post isoproterenol stimulation by H and E staining based histopathological analysis", "assay_type": "functional, organism-based"}, "Mus musculus [16]": {"test_system": "Mus musculus", "test": "Cardioprotective activity in Swiss mouse model of isoproterenol-induced myocardial infarction assessed as reduction in lactate dehydrogenase at 10 umol, ip administered 30 mins post isoproterenol stimulation", "assay_type": "functional, organism-based"}, "Mus musculus [17]": {"test_system": "Mus musculus", "test": "Cardioprotective activity in Swiss mouse model of isoproterenol-induced myocardial infarction assessed as reduction in creatine kinase myocardial band at 10 umol, ip administered 30 mins post isoproterenol stimulation", "assay_type": "functional, organism-based"}, "Mus musculus [18]": {"test_system": "Mus musculus", "test": "Cardioprotective activity in Swiss mouse model of myocardial infarction assessed as protection against isoproterenol-induced discontinuity in myocardium at 10 umol, ip administered 30 mins post isoproterenol stimulation by H and E staining based histopathological analysis", "assay_type": "functional, organism-based"}, "Mus musculus [19]": {"test_system": "Mus musculus", "test": "Cardioprotective activity in Swiss mouse model of myocardial infarction assessed as protection against isoproterenol-induced mononuclear cell infiltration in myocardium at 10 umol, ip administered 30 mins post isoproterenol stimulation by H and E staining based histopathological analysis", "assay_type": "functional, organism-based"}, "Mus musculus [20]": {"test_system": "Mus musculus", "test": "Cardioprotective activity in Swiss mouse model of myocardial infarction assessed as protection against isoproterenol-induced degeneration in myocardium at 10 umol, ip administered 30 mins post isoproterenol stimulation by H and E staining based histopathological analysis", "assay_type": "functional, organism-based"}, "Mus musculus [21]": {"test_system": "Mus musculus", "test": "Cardioprotective activity in Swiss mouse model of myocardial infarction assessed as protection against isoproterenol-induced wide spacing in myocardium at 10 umol, ip administered 30 mins post isoproterenol stimulation by H and E staining based histopathological analysis", "assay_type": "functional, organism-based"}, "Mus musculus [22]": {"test_system": "Mus musculus", "test": "Cardioprotective activity in Swiss mouse model of myocardial infarction assessed as protection against isoproterenol-induced vacuolation in myocardium at 10 umol, ip administered 30 mins post isoproterenol stimulation by H and E staining based histopathological analysis", "assay_type": "functional, organism-based"}, "Mus musculus [23]": {"test_system": "Mus musculus", "test": "Cardioprotective activity in Swiss mouse model of myocardial infarction assessed as protection against isoproterenol-induced capillary congestion in myocardium at 10 umol, ip administered 30 mins post isoproterenol stimulation by H and E staining based histopathological analysis", "assay_type": "functional, organism-based"}, "Mus musculus [24]": {"test_system": "Mus musculus", "test": "Cardioprotective activity against isoproterenol-induced oxidative stress in Swiss mouse model of myocardial infarction assessed as reduction in ROS generation at 10 umol, ip administered 30 mins post isoproterenol stimulation by DHE staining based fluorescence assay", "assay_type": "functional, organism-based"}, "Mus musculus [25]": {"test_system": "Mus musculus", "test": "Cardioprotective activity against isoproterenol-induced oxidative stress in Swiss mouse model of myocardial infarction assessed as reduction in lipid peroxidation at 10 umol, ip administered 30 mins post isoproterenol stimulation by TBARS method", "assay_type": "functional, organism-based"}, "Mus musculus [26]": {"test_system": "Mus musculus", "test": "Cardioprotective activity against isoproterenol-induced oxidative stress in Swiss mouse model of myocardial infarction assessed as reduction in protein carbonylation at 10 umol, ip administered 30 mins post isoproterenol stimulation by spectrophotometric method", "assay_type": "functional, organism-based"}, "Mus musculus [27]": {"test_system": "Mus musculus", "test": "Cardioprotective activity against isoproterenol-induced oxidative stress in Swiss mouse model of myocardial infarction assessed as reduction in sulfhydryl level in cardiac tissue homogenate at 10 umol, ip administered 30 mins post isoproterenol stimulation by spectrophotometric method", "assay_type": "functional, organism-based"}, "Mus musculus [28]": {"test_system": "Mus musculus", "test": "Cardioprotective activity against isoproterenol-induced oxidative stress in Swiss mouse model of myocardial infarction assessed as change in ferric ion reducing activity at 10 umol, ip administered 30 mins post isoproterenol stimulation by FRAP assay", "assay_type": "functional, organism-based"}, "Mus musculus [29]": {"test_system": "Mus musculus", "test": "Cardioprotective activity against isoproterenol-induced oxidative stress in Swiss mouse model of myocardial infarction assessed as increase in catalase activity at 10 umol, ip administered 30 mins post isoproterenol stimulation by spectrophotometric method", "assay_type": "functional, organism-based"}, "Mus musculus [30]": {"test_system": "Mus musculus", "test": "Cardioprotective activity against isoproterenol-induced oxidative stress in Swiss mouse model of myocardial infarction assessed as increase in SOD activity at 10 umol, ip administered 30 mins post isoproterenol stimulation by spectrophotometric method", "assay_type": "functional, organism-based"}, "Mus musculus [31]": {"test_system": "Mus musculus", "test": "Cardioprotective activity against isoproterenol-induced oxidative stress in Swiss mouse model of myocardial infarction assessed as increase in GPx activity at 10 umol, ip administered 30 mins post isoproterenol stimulation by spectrophotometric method", "assay_type": "functional, organism-based"}, "Mus musculus [32]": {"test_system": "Mus musculus", "test": "Cardioprotective activity against isoproterenol-induced apoptosis in Swiss mouse model of myocardial infarction assessed as reduction in Bax expression at 10 umol, ip administered 30 mins post isoproterenol stimulation by Western blot analysis", "assay_type": "functional, organism-based"}, "Mus musculus [33]": {"test_system": "Mus musculus", "test": "Cardioprotective activity against isoproterenol-induced apoptosis in Swiss mouse model of myocardial infarction assessed as change in Bcl2 expression at 10 umol, ip administered 30 mins post isoproterenol stimulation by Western blot analysis", "assay_type": "functional, organism-based"}, "Mus musculus [34]": {"test_system": "Mus musculus", "test": "Cardioprotective activity against isoproterenol-induced apoptosis in Swiss mouse model of myocardial infarction assessed as reduction in Bax/Bcl2 expression ratio in at 10 umol, ip administered 30 mins post isoproterenol stimulation by Western blot analysis", "assay_type": "functional, organism-based"}, "Mus musculus [35]": {"test_system": "Mus musculus", "test": "Cardioprotective activity against isoproterenol-induced oxidative stress in Swiss mouse model of myocardial infarction assessed as reduction in caspase-3 expression at 10 umol, ip administered 30 mins post isoproterenol stimulation by Western blot analysis", "assay_type": "functional, organism-based"}}, "note": "Active and inactive are the calls of the source. No cut-off for these calls is given here.", "data": [{"smiles": "CC(=O)N[C@@H](CS)C(=O)O", "note": "[ACETYLCYSTEINE]", "values": [{"measurement": "Activity", "setting": "Mus musculus [1]", "value": 20, "unit": "%"}, {"measurement": "Activity", "setting": "Mus musculus [2]", "value": "Active"}, {"measurement": "Activity", "setting": "Mus musculus [3]", "value": "Active"}, {"measurement": "Activity", "setting": "Mus musculus [4]", "value": "Active"}, {"measurement": "Activity", "setting": "Mus musculus [5]", "value": "Active"}, {"measurement": "Activity", "setting": "Mus musculus [6]", "value": "Active"}, {"measurement": "Activity", "setting": "Mus musculus [7]", "value": "Active"}, {"measurement": "Activity", "setting": "Mus musculus [8]", "value": "Active"}, {"measurement": "Activity", "setting": "Mus musculus [9]", "value": "Active"}, {"measurement": "Activity", "setting": "Mus musculus [10]", "value": "Active"}]}, {"smiles": "C=C(C)[C@H]1CC=C(C)CC1", "note": "[D-LIMONENE]", "values": [{"measurement": "Activity", "setting": "Mus musculus [11]", "value": 30, "unit": "%"}, {"measurement": "Activity", "setting": "Mus musculus [12]", "value": "Active"}, {"measurement": "Activity", "setting": "Mus musculus [13]", "value": "Active"}, {"measurement": "Activity", "setting": "Mus musculus [14]", "value": "Active"}, {"measurement": "Activity", "setting": "Mus musculus [15]", "value": "Active"}, {"measurement": "Activity", "setting": "Mus musculus [16]", "value": "Active"}, {"measurement": "Activity", "setting": "Mus musculus [17]", "value": "Active"}, {"measurement": "Activity", "setting": "Mus musculus [18]", "value": "Active"}, {"measurement": "Activity", "setting": "Mus musculus [19]", "value": "Active"}, {"measurement": "Activity", "setting": "Mus musculus [20]", "value": "Active"}, {"measurement": "Activity", "setting": "Mus musculus [21]", "value": "Active"}, {"measurement": "Activity", "setting": "Mus musculus [22]", "value": "Active"}, {"measurement": "Activity", "setting": "Mus musculus [23]", "value": "Active"}, {"measurement": "Activity", "setting": "Mus musculus [24]", "value": "Active"}, {"measurement": "Activity", "setting": "Mus musculus [25]", "value": "Active"}, {"measurement": "Activity", "setting": "Mus musculus [26]", "value": "Active"}, {"measurement": "Activity", "setting": "Mus musculus [27]", "value": "Active"}, {"measurement": "Activity", "setting": "Mus musculus [28]", "value": "inactive"}, {"measurement": "Activity", "setting": "Mus musculus [29]", "value": "inactive"}, {"measurement": "Activity", "setting": "Mus musculus [30]", "value": "Active"}, {"measurement": "Activity", "setting": "Mus musculus [31]", "value": "Active"}, {"measurement": "Activity", "setting": "Mus musculus [32]", "value": "Active"}, {"measurement": "Activity", "setting": "Mus musculus [33]", "value": "inactive"}, {"measurement": "Activity", "setting": "Mus musculus [34]", "value": "Active"}, {"measurement": "Activity", "setting": "Mus musculus [35]", "value": "Active"}]}]}
